Laboratory results published in article PMC10095708, “Discovery of Novel STING Inhibitors Based on the Structure of the Mouse STING Agonist DMXAA” (Molecules, 2023).
“And” between values parts separate entries of the source, which are not always exact repeats. Equal entries are not always repeated.

How the values were obtained:
mSTING [1] = target: T1, mSTING (Mus musculus, UniProt Q3TBT3); experiment: Cellular assay for STING inhibitory activity, 293T mSTING cells stimulated with 2′,3′-cGAMP (SEAP)
T1 sequence (Q3TBT3 1-378): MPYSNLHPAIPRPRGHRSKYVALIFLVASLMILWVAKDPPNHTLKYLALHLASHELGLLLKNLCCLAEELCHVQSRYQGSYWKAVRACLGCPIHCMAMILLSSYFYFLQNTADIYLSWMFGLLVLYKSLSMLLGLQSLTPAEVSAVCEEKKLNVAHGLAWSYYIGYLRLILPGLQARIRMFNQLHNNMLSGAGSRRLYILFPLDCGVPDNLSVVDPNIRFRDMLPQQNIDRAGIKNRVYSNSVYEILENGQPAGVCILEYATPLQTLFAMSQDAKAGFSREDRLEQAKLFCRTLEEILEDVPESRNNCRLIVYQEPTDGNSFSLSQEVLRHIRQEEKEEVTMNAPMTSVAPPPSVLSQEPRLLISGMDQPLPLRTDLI

THP-1 cells = experiment: CellTiter-Glo luminescent cell viability assay, THP-1 cells; conditions: 5 to 100 μM, 48 h
hSTING-R232 = hSTING-R232 (Homo sapiens, UniProt Q86WV6, H232R); experiment: Cellular assay for STING inhibitory activity, 293T hSTING-R232 cells stimulated with 2′,3′-cGAMP (SEAP)
Chain of hSTING-R232 (Q86WV6 whole entry H232R): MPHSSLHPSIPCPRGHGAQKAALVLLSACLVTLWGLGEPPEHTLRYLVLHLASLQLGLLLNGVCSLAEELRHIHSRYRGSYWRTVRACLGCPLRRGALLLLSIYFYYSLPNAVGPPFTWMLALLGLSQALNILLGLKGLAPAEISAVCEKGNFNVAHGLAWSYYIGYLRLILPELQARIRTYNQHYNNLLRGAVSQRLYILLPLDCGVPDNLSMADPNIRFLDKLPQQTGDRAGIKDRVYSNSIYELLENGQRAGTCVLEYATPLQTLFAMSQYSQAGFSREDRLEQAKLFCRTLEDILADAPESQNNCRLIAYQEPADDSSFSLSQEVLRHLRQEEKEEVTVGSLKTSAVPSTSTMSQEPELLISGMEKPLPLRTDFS

mSTING [2] = target: T1, mSTING; experiment: HTRF STING competition binding (cGAMP displacement) assay, mSTING; set-up: purchased Cisbio; conditions: for IC50: HTRF displacement assay, means from at least three repeated experiments; for binding to mSTING in displacement assay, in words: concentrations up to 100 μM
Description: (§1) Mouse STING binding kits, human STING WT binding kits, human AQ STING binding kits, human H232 STING binding kits were purchased from Cisbio. […] QUANTI-Blue solution, QUANTI-Luc, 2′,3′-cGAMP were purchased from Invivogen. […] CellTiter-Glo luminescent cell viability assay kit was obtained from Promega.
(§2) According to the instructions of STING binding kits, the following solutions were successively added to each well in the 384-well plate: 5 μL of the detection compounds or 2′,3′-cGAMP (positive control) with different concentrations or diluent (negative control); 5 μL of human STING 6His-tagged protein (negative control well was added to detection buffer); 10 μL of STING ligand d2 and Anti 6His-Tb3^+ premixed working solution.

[3] = test system: STING-triggered IRF pathway; experiment: Inhibition of STING dual pathways, THP1-KI-hSTING-R232 cells, IRF (Lucia luciferase); conditions: THP1-hSTING-R232 cells stimulated with 2′,3′-cGAMP, 24 h; 11 20 µM, 27 33 µM, H151 2 µM
Description: (§3) After the THP-1 reporter cell line stimulation with 2′,3′-cGAMP, we added STING inhibitors with appropriate concentrations for inhibiting the inductions of I IFN and proinflammatory cytokine. […] In addition, to exclude the effect of cytotoxicity of the compounds on the inhibitory activity, we used the CellTiter-Glo kit to assay cellular activity.

hSTING-H232 = target: T2, hSTING-H232 (Homo sapiens, UniProt Q86WV6); experiment: HTRF STING competition binding (cGAMP displacement) assay, hSTING-H232; conditions: for IC50: HTRF displacement assay, means from at least three repeated experiments; for binding to hSTING-H232 in displacement assay, in words: concentrations up to 100 μM
T2 construct: purchased Cisbio
T2 sequence (Q86WV6 135-379 limits assumed): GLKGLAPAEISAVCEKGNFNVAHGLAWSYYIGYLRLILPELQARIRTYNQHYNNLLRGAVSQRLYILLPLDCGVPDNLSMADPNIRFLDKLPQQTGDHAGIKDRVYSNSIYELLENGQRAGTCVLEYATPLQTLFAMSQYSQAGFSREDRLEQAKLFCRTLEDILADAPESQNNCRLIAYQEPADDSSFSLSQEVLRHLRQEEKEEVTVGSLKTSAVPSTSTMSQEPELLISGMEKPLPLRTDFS
Description: as §1, §2

hSTING-AQ = target: T3, hSTING-AQ (Homo sapiens, UniProt Q86WV6, G230A/R293Q); experiment: HTRF STING competition binding (cGAMP displacement) assay, hSTING-AQ; conditions: for IC50: HTRF displacement assay, means from at least three repeated experiments; for binding to hSTING-AQ in displacement assay, in words: concentrations up to 100 μM
T3 construct: purchased Cisbio
T3 sequence (Q86WV6 whole entry G230A/R293Q): as the sequence (Q86WV6 whole entry H232R) above, with G230A, R232H, R293Q counted along it
Description: as §1, §2

293T cells = experiment: CellTiter-Glo luminescent cell viability assay, 293T cells; conditions: 5 to 100 μM, 48 h
[4] = test system: STING-triggered NF-κB pathway; experiment: Inhibition of STING dual pathways, THP1-KI-hSTING-R232 cells, NF-κB (SEAP); conditions: THP1-hSTING-R232 cells stimulated with 2′,3′-cGAMP, 24 h; 11 20 µM, 27 33 µM, H151 2 µM
Description: as §3

hSTING-WT = target: T4, hSTING-WT (Homo sapiens, UniProt Q86WV6, H232R); experiment: HTRF STING competition binding (cGAMP displacement) assay, hSTING-WT; conditions: for IC50: HTRF displacement assay, means from at least three repeated experiments; for binding to hSTING-WT in displacement assay, in words: concentrations up to 100 μM
T4 construct: purchased Cisbio
T4 sequence (Q86WV6 whole entry H232R): as the sequence (Q86WV6 whole entry H232R) above
Description: as §1, §2

| SMILES | IC50 (mSTING [1]) [µM] | inhibitory potency in murine STING reporter cells, initial screen (mSTING [1]; compound at 100 μM) | cytotoxicity, cell viability THP-1 cells (THP-1 cells) | IC50 (hSTING-R232) [µM] | inhibitory potency in human STING reporter cells, initial screen (hSTING-R232; compound at 100 μM) | IC50 (mSTING [2]) | inhibition of STING-triggered IRF pathway activation [3] | IC50 (hSTING-H232) | IC50 (hSTING-AQ) | cytotoxicity, cell viability 293T cells (293T cells) | inhibition of STING-triggered NF-κB pathway activation [4] | IC50 (hSTING-WT) | binding to mSTING in displacement assay, in words (mSTING [2]) | binding to hSTING-H232 in displacement assay, in words (hSTING-H232) | binding to hSTING-AQ in displacement assay, in words (hSTING-AQ) | binding to hSTING-WT in displacement assay, in words (hSTING-WT) |
| --- | --- | --- | --- | --- | --- | --- | --- | --- | --- | --- | --- | --- | --- | --- | --- | --- |
| COc1cc2c(=O)c3ccccc3n(CC(=O)O)c2c(C)c1C [Compound 11, 2-(2-methoxy-3,4-dimethyl-9-oxoacridin-10(9H)-yl)acetic acid] | 15.5 | excellent inhibition | no evidence of cytotoxicity | 19.9 | excellent inhibition | < 20 µM and 19 µM | significantly inhibited | < 20 µM and 12.1 µM | < 20 µM and 14.3 µM | no evidence of cytotoxicity | significantly inhibited | < 20 µM and 5.81 µM | – | – | – | – |
| COc1cc2c(=O)c3c(Cl)ccc(CC(=O)O)c3[nH]c2c(C)c1C [Compound 36] | – | – | – | – | – | > 100 µM | – | > 100 µM | > 100 µM | – | – | > 100 µM | – | – | – | – |
| CCOC(=O)Cn1c2ccccc2c(=O)c2cc(OC)c(C)c(C)c21 [Compound 10, Ethyl 2-(2-methoxy-3,4-dimethyl-9-oxoacridin-10 (9H)-yl)acetate] | – | – | – | – | – | > 100 µM | – | > 100 µM | > 100 µM | – | – | > 100 µM | cannot bind to STING | cannot bind to STING | cannot bind to STING | cannot bind to STING |
| COc1cc2c(=O)c3cc(Cl)cc(CC(=O)O)c3[nH]c2c(C)c1C [Compound 38] | – | – | – | – | – | > 100 µM | – | > 100 µM | > 100 µM | – | – | > 100 µM | – | – | – | – |
| COc1cc2c(=O)c3cc(F)cc4c3n(c2c(C)c1C)C(=O)C4 [Compound 28, 4-fluoro-8-methoxy-9,10-dimethyl-6H-pyrrolo[3,2,1-de]acridine-1,6(2H)-dione] | – | – | – | – | – | 61 µM | – | 62.4 µM | 55.2 µM | – | – | 88.1 µM | – | – | – | – |
| COc1cc2c(=O)c3ccccc3[nH]c2c(C)c1C [Compound 9, 2-methoxy-3,4-dimethylacridin-9(10H)-one] | – | – | – | – | – | > 100 µM | – | > 100 µM | > 100 µM | – | – | > 100 µM | cannot bind to STING | cannot bind to STING | cannot bind to STING | cannot bind to STING |
| COc1cc2c(=O)c3cc(Cl)cc4c3n(c2c(C)c1C)C(=O)C4 [Compound 26, 4-chloro-8-methoxy-9,10-dimethyl-6H-pyrrolo[3,2,1-de]acridine-1,6(2H)-dione] | – | – | – | – | – | 51.5 µM | – | 79.1 µM | 65.1 µM | – | – | > 100 µM | – | – | – | – |
| COc1cc2c(=O)c3c(F)ccc(CC(=O)O)c3[nH]c2c(C)c1C [Compound 35] | – | – | – | – | – | > 100 µM | – | > 100 µM | > 100 µM | – | – | > 100 µM | – | – | – | – |
